# According to patent US12410166B2, “Sulfonylamidine substituted compounds and their use as beta-lactamase inhibitors” (NINGXIA ACADEMY OF AGRICULTURE AND FORESTRY SCIENCES, priority 2021, dated 2025):
# Counter-ions that a name gives are not always drawn. Like-named read-outs stand apart in the source and are kept apart here.
# Legend:
# Test in all cases: MIC by broth microdilution (antibacterial and synergistic activity)
# Type in all cases: cell-based
# [1] = test system: K. pneumoniae 700603 (strain 4, KPC-3, TEM-1); conditions: for MIC: Klebsiella pneumoniae
# Protocol: (§1) Compounds of the present invention alone, avibactam (AVI) alone, relebactam (REL) alone, meropenem (MER) alone, imipenem (IMI) alone, and as a combination of compounds of the present invention, or avibactam or relebactam with test antibiotic (meropenem or imipenem) was tested for antimicrobial activity by determining minimum inhibitory concentration (MIC, mg/L) using the broth microdilution method according to the guidelines of the Clinical Laboratories and Standards Institute (“Methods for Dilution Antimicrobial Susceptibility Tests for Bacterial that Grow Aerobically”, Approved standard, 7th ed., Clinical and Laboratories Standards Institute (CLSI) Document M7-A8, Wayne, Pa., USA, 2009). Meropenem or imipenem as a test antibiotic compound was dissolved in DMSO, and then diluted in microbial growth medium (Mueller-Hinton Broth II, cation adjusted) resulting in a final concentration range of 0.031-64 mg/L in serial two-fold dilution. In all cases the final DMSO concentration was less than 0.5%. Bacteria were added to 96-well microtitre plates containing the serial two-fold dilutions of the compounds; the final cell density was approximately 5×10^5 colony forming units/mL (CFU/mL). Plates were incubated at 37° C. for 18-24 hours and read visually. The MIC, i.e. the lowest concentration of the test compound that inhibited visible growth of the bacteria, was recorded. The same assay conditions were used when the compounds of present invention alone, avibactam or relebactam alone (as a control), and as a combination of the present invention each compound, or avibactam or relebactam with test meropenem or imipenem antibiotic compound was tested for minimum inhibitory concentration (MIC, mg/L). While test meropenem or imipenem was serially diluted as described above, a constant concentration of avibactam, or relebactam or the present invention each compound of 4 mg/L was used.
# (§2) Bacterial strains that were used to evaluate the antimicrobial activity using the MIC determination included but were not limited to E. coli clinical isolate (strain 1, TEM-1), E. coli 8739 (strain 2, CTX-M15), K. pneumoniae clinical isolate (strain 3, SHV-1), K. pneumoniae 700603 (strain 4, KPC-3, TEM-1), E. cloacae clinical isolate (strain 5, P99), E. cloacae 700323 (strain 6, AmpC), A. baumannii clinical isolate (strain 7, OXA-23, OXA-40), A. baumannii 19606 (strain 8, OXA-24), P. aeruginosa clinical isolate (strain 9, KPC-2), P. aeruginosa 9027 (strain 10, AmpC).
# [2] = test system: E. coli clinical isolate (strain 1, TEM-1); conditions: for MIC: Escherichia coli
# Protocol: as §1, §2
# [3] = test system: P. aeruginosa clinical isolate (strain 9, KPC-2); conditions: for MIC: Pseudomonas aeruginosa
# Protocol: as §1, §2
# [4] = test system: A. baumannii 19606 (strain 8, OXA-24); conditions: for MIC: Acinetobacter baumannii
# Protocol: as §1, §2
# [5] = test system: E. cloacae 700323 (strain 6, AmpC); conditions: for MIC: Enterobacter cloacae
# Protocol: as §1, §2
# [6] = test system: P. aeruginosa 9027 (strain 10, AmpC); conditions: for MIC: Pseudomonas aeruginosa
# Protocol: as §1, §2
# [7] = test system: E. cloacae clinical isolate (strain 5, P99); conditions: for MIC: Enterobacter cloacae
# Protocol: as §1, §2
# [8] = test system: K. pneumoniae clinical isolate (strain 3, SHV-1); conditions: for MIC: Klebsiella pneumoniae
# Protocol: as §1, §2
# [9] = test system: A. baumannii clinical isolate (strain 7, OXA-23, OXA-40); conditions: for MIC: Acinetobacter baumannii
# Protocol: as §1, §2
# [10] = test system: E. coli 8739 (strain 2, CTX-M15); conditions: Escherichia coli, read-out: Antibacterial activity, MIC, inhibitor Alone
# Protocol: as §1, §2
# [11] = read-out: Antibacterial activity, MIC, inhibitor Alone
# [12] = strain 4 (KPC-3, TEM-1), compound alone, no antibiotic, read-out: Antibacterial activity, MIC, inhibitor Alone
# [13] = strain 1 (TEM-1), compound alone, no antibiotic, read-out: Antibacterial activity, MIC, inhibitor Alone
# [14] = strain 9 (KPC-2), compound alone, no antibiotic, read-out: Antibacterial activity, MIC, inhibitor Alone
# [15] = strain 6 (AmpC), compound alone, no antibiotic, read-out: Antibacterial activity, MIC, inhibitor Alone
# [16] = strain 10 (AmpC), compound alone, no antibiotic, read-out: Antibacterial activity, MIC, inhibitor Alone
# [17] = strain 5 (P99), compound alone, no antibiotic, read-out: Antibacterial activity, MIC, inhibitor Alone
# [18] = strain 3 (SHV-1), compound alone, no antibiotic, read-out: Antibacterial activity, MIC, inhibitor Alone
# [19] = strain 7 (OXA-23/40), compound alone, no antibiotic, read-out: Antibacterial activity, MIC, inhibitor Alone
# [20] = strain 4 (KPC-3, TEM-1), inhibitor at constant 4 mg/L
# [21] = strain 1 (TEM-1), inhibitor at constant 4 mg/L
# [22] = strain 9 (KPC-2), inhibitor at constant 4 mg/L
# [23] = strain 6 (AmpC), inhibitor at constant 4 mg/L
# [24] = strain 10 (AmpC), inhibitor at constant 4 mg/L
# [25] = strain 5 (P99), inhibitor at constant 4 mg/L
# [26] = strain 3 (SHV-1), inhibitor at constant 4 mg/L
# [27] = strain 7 (OXA-23/40), inhibitor at constant 4 mg/L
smiles,measurement,setting,value
"C[C@@H](O)[C@H]1C(=O)N2C(C(=O)O)=C(SCCN=CN)C[C@H]12 [IMI, imipenem, reference compound]",MIC,"[1]; strain 4 (KPC-3, TEM-1), imipenem alone, read-out: MIC, IMI Alone",4 µg/mL
same,MIC,"[2]; strain 1 (TEM-1), imipenem alone, read-out: MIC, IMI Alone",0.5 µg/mL
same,MIC,"[3]; strain 9 (KPC-2), imipenem alone, read-out: MIC, IMI Alone",2 µg/mL
same,MIC,"[4]; read-out: MIC, IMI Alone",2 µg/mL
same,MIC,"[5]; strain 6 (AmpC), imipenem alone, read-out: MIC, IMI Alone",0.5 µg/mL
same,MIC,"[6]; strain 10 (AmpC), imipenem alone, read-out: MIC, IMI Alone",4 µg/mL
same,MIC,"[7]; strain 5 (P99), imipenem alone, read-out: MIC, IMI Alone",4 µg/mL
same,MIC,"[8]; strain 3 (SHV-1), imipenem alone, read-out: MIC, IMI Alone",2 µg/mL
same,MIC,"[9]; strain 7 (OXA-23/40), imipenem alone, read-out: MIC, IMI Alone",0.5 µg/mL
"C[C@@H](O)[C@H]1C(=O)N2C(C(=O)O)=C(S[C@@H]3CN[C@H](C(=O)N(C)C)C3)[C@H](C)[C@H]12 [MER, meropenem, reference compound]",MIC,"[1]; strain 4 (KPC-3, TEM-1), meropenem alone, read-out: MIC, MER Alone",2 µg/mL
same,MIC,"[2]; strain 1 (TEM-1), meropenem alone, read-out: MIC, MER Alone",4 µg/mL
same,MIC,"[3]; strain 9 (KPC-2), meropenem alone, read-out: MIC, MER Alone",4 µg/mL
same,MIC,"[4]; read-out: MIC, MER Alone",2 µg/mL
same,MIC,"[5]; strain 6 (AmpC), meropenem alone, read-out: MIC, MER Alone",4 µg/mL
same,MIC,"[6]; strain 10 (AmpC), meropenem alone, read-out: MIC, MER Alone",4 µg/mL
same,MIC,"[7]; strain 5 (P99), meropenem alone, read-out: MIC, MER Alone",4 µg/mL
same,MIC,"[8]; strain 3 (SHV-1), meropenem alone, read-out: MIC, MER Alone",4 µg/mL
same,MIC,"[9]; strain 7 (OXA-23/40), meropenem alone, read-out: MIC, MER Alone",4 µg/mL
"CNS(=O)(=O)NC(=N)[C@@H]1CC[C@@H]2CN1C(=O)N2OS(=O)(=O)O [Ex. 17, (2S,5R)-2-(N—(N-Methylsulfamoyl)carbamimidoyl)-7-oxo-1,6-diazabicyclo[3.2.1]octan-6-yl hydrogen sulfate]",MIC,[1]; [11],> 64 µg/mL
same,MIC,[2]; [11],> 64 µg/mL
same,MIC,[3]; [11],> 64 µg/mL
same,MIC,[4]; [11],> 64 µg/mL
same,MIC,[5]; [11],> 64 µg/mL
same,MIC,[6]; [11],> 64 µg/mL
same,MIC,[10],> 64 µg/mL
same,MIC,[7]; [11],> 64 µg/mL
same,MIC,[8]; [11],> 64 µg/mL
same,MIC,[9]; [11],> 64 µg/mL
"N=C(NS(=O)(=O)C1CC1)[C@@H]1CC[C@@H]2CN1C(=O)N2OS(=O)(=O)[O-].[Na+] [Ex. 6, Sodium (2S,5R)-2-(N-(cyclopropylsulfonyl)carbamimidoyl)-7-oxo-1,6-diazabicyclo[3.2.1]octan-6-yl sulfate]",MIC,[1]; [12],> 64 µg/mL
same,MIC,[2]; [13],> 64 µg/mL
same,MIC,[3]; [14],> 64 µg/mL
same,MIC,[4]; [11],> 64 µg/mL
same,MIC,[5]; [15],> 64 µg/mL
same,MIC,[6]; [16],> 64 µg/mL
same,MIC,[10],> 64 µg/mL
same,MIC,[7]; [17],> 64 µg/mL
same,MIC,[8]; [18],> 64 µg/mL
same,MIC,[9]; [19],> 64 µg/mL
"CCS(=O)(=O)NC(=N)[C@@H]1CC[C@@H]2CN1C(=O)N2OS(=O)(=O)[O-].[Na+] [Ex. 8, Sodium (2S,5R)-2-(N-(ethylsulfonyl)carbamimidoyl)-7-oxo-1,6-diazabicyclo[3.2.1]octan-6-yl sulfate]",MIC,[1]; [12],> 64 µg/mL
same,MIC,[2]; [13],> 64 µg/mL
same,MIC,[3]; [14],> 64 µg/mL
same,MIC,[4]; [11],> 64 µg/mL
same,MIC,[5]; [15],> 64 µg/mL
same,MIC,[6]; [16],> 64 µg/mL
same,MIC,[10],> 64 µg/mL
same,MIC,[7]; [17],> 64 µg/mL
same,MIC,[8]; [18],> 64 µg/mL
same,MIC,[9]; [19],> 64 µg/mL
"N=C(NS(=O)(=O)c1ccc(F)cn1)[C@@H]1CC[C@@H]2CN1C(=O)N2OS(=O)(=O)O [Ex. 23, (2S,5R)-2-(N-((5-fluoropyridin-2-yl)sulfonyl)carbamimidoyl)-7-oxo-1,6-diazabicyclo[3.2.1]octan-6-yl hydrogen sulfate]",MIC,[1]; [12],> 64 µg/mL
same,MIC,[2]; [13],> 64 µg/mL
same,MIC,[3]; [14],> 64 µg/mL
same,MIC,[4]; [11],> 64 µg/mL
same,MIC,[5]; [15],> 64 µg/mL
same,MIC,[6]; [16],> 64 µg/mL
same,MIC,[10],> 64 µg/mL
same,MIC,[7]; [17],> 64 µg/mL
same,MIC,[8]; [18],> 64 µg/mL
same,MIC,[9]; [19],> 64 µg/mL
"COC(=O)CS(=O)(=O)NC(=N)[C@@H]1CC[C@@H]2CN1C(=O)N2OS(=O)(=O)[O-].[Na+] [Ex. 2, Sodium (2S,5R)-2-(N-((2-methoxy-2-oxoethyl)sulfonyl)caramimidoyl)-7-oxo-1,6-diazabicyclo[3.2.1]octan-6-yl sulfate]",MIC of imipenem in combination with the inhibitor (IMI + inhibitor),[1]; [20],<0.125 µg/mL
same,MIC of meropenem in combination with the inhibitor (MER + inhibitor),[1]; [20],<0.125 µg/mL
same,MIC of imipenem in combination with the inhibitor (IMI + inhibitor),[2]; [21],<0.125 µg/mL
same,MIC of meropenem in combination with the inhibitor (MER + inhibitor),[2]; [21],<0.125 µg/mL
same,MIC of imipenem in combination with the inhibitor (IMI + inhibitor),[3]; [22],1.0 µg/mL
same,MIC of meropenem in combination with the inhibitor (MER + inhibitor),[3]; [22],0.125 µg/mL
same,MIC of meropenem in combination with the inhibitor (MER + inhibitor),"[4]; strain 8 (OXA-24), inhibitor at constant 4 mg/L",0.5 µg/mL
same,MIC of imipenem in combination with the inhibitor (IMI + inhibitor),[5]; [23],0.5 µg/mL
same,MIC of meropenem in combination with the inhibitor (MER + inhibitor),[5]; [23],<0.125 µg/mL
same,MIC of imipenem in combination with the inhibitor (IMI + inhibitor),[6]; [24],1.0 µg/mL
same,MIC of meropenem in combination with the inhibitor (MER + inhibitor),[6]; [24],<0.125 µg/mL
same,MIC of imipenem in combination with the inhibitor (IMI + inhibitor),[7]; [25],<0.125 µg/mL
same,MIC of meropenem in combination with the inhibitor (MER + inhibitor),[7]; [25],<0.125 µg/mL
same,MIC of imipenem in combination with the inhibitor (IMI + inhibitor),[8]; [26],0.25 µg/mL
same,MIC of meropenem in combination with the inhibitor (MER + inhibitor),[8]; [26],0.125 µg/mL
same,MIC of imipenem in combination with the inhibitor (IMI + inhibitor),[9]; [27],0.25 µg/mL
same,MIC of meropenem in combination with the inhibitor (MER + inhibitor),[9]; [27],<0.125 µg/mL
"Cn1cnc(S(=O)(=O)NC(=N)[C@@H]2CC[C@@H]3CN2C(=O)N3OS(=O)(=O)[O-])c1.[Na+] [Ex. 7, Sodium (2S,5R)-2-(N-((1-methyl-1H-imidazol-4-yl)sulfonyl)carbamimidoyl)-7-oxo-1,6-diazabicyclo[3.2.1]octan-6-yl sulfate]",MIC,[1]; [12],> 64 µg/mL
same,MIC,[2]; [13],> 64 µg/mL
same,MIC,[4]; [11],> 64 µg/mL
same,MIC,[5]; [15],> 64 µg/mL
same,MIC,[6]; [16],> 64 µg/mL
same,MIC,[10],> 64 µg/mL
same,MIC,[7]; [17],> 64 µg/mL
same,MIC,[8]; [18],> 64 µg/mL
same,MIC,[9]; [19],> 64 µg/mL
